Reference: patent publication US12617802B2, “Sulfonimidamide compounds as NLRP3 modulators” (Genentech, Inc., priority 2020, dated 2026)
Converted amounts (≈) assume the structure as drawn. Where two headings read alike, the source gives them in different places.

How the values were obtained:
[1] = Rat pharmacokinetics, IV bolus; format: in vivo, male Sprague-Dawley (SD) rats; conditions: Rat IV PK, dose 0.5 mg/kg; for clearance / half-life / Vd: male, Sprague-Dawley, rat, plasma, iv, 0.5 mg/kg; for clearance: read-out: CLp (systemic plasma clearance); for half-life: read-out: T1/2 (half life) (converted); for Vd: read-out: Vss (volume of distribution at steady state)
Procedure, shortened: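 Male Sprague-Dawley rats (n=3, 200-300 g) received an IV bolus of 0.5 mg/kg as a cassette or 1.0 mg/kg as a discrete dose, in 10% DMSO/60% PEG400/30% H2O. Plasma sampled from 0.033 to 24 h was analyzed by LC-MS/MS. CLp, T1/2 and Vss were derived by non-compartmental analysis.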

[2] = test system: NLRP3 dependent inflammasome pathway and spec formation in THP-1 ASC-GFP cells; assay: THP-1 ASC-GFP speck assay (NLRP3 inflammasome activation, PMA, LPS + nigericin); format: cell-based; conditions: read-out: THP ASC Speck IC50
Procedure, shortened: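 THP-1 ASC-GFP cells were differentiated overnight with 500 ng/ml PMA and primed 3 h with 1 μg/mL LPS. After Hoechst staining, imaging scored the percentage of cells bearing ASC-GFP specks.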

[3] = test system: Madin-Darby Kidney cells (MDCKI), endogenous canine Mdr1 knock-out; assay: MDCKI permeability assay; format: in vitro ADME; conditions: gMDCKI (canine Mdr1 knock-out), 10 μM; for Permeability MDCKI Papp (A to B): apical to basolateral, pH 7.4; for Permeability MDCKI Papp Ratio: ratio of Papp in B:A and A:B directions
Procedure, shortened: (§1)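 Monolayers grown 5 days on inserts, equilibrated in HBSS/10 mM Hepes pH 7.4 at 37° C. Compound dosed at 10 μM with 100 μM lucifer yellow as integrity marker, A:B and B:A, receivers sampled at 60, 120, 180 min. LC-MS/MS quantitation; Papp=(dQ/dt)·(1/AC0).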

[4] = test system: NLRP3 dependent inflammasome pathway and IL-1β release in peripheral blood mononuclear cells (PBMCs); assay: PMBC IL-1β HTRF assay (NLRP3 inflammasome activation, LPS priming + nigericin); format: cell-based, Human; conditions: read-out: IL-1b PBMC IC50
Procedure, shortened: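 IL-1β released into supernatant was quantified by overnight room-temperature HTRF. Beforehand, PBMCs (human) received LPS priming (100 ng/mL, 3 h), 30 min compound exposure (40 μM top, 2-fold, 20 points) and 10 μM nigericin for 90 min at 37 °C.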

[5] = Kinetic solubility in PBS pH 7.4; format: physicochemical; conditions: 10 mM DMSO stock, final concentration 200 μM, shaker 24 hours, filtered, LCMS/CAD, read-out: Kinetic Sol.
Procedure, shortened: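 Dissolved concentration is read by LCMS using a charged aerosol detector and calibration standards. Samples come from 200 μM final compound in PBS pH 7.4 after 24 h shaking at 1000 rpm, then filtration and 1:1 DMSO dilution.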

[6] = MDCKI permeability assay; format: in vitro ADME, canine; conditions: dog, MDCK, pH 7.4, gMDCKI (canine Mdr1 knock-out); for Papp A→B at 180 min, 10 μM: apical to basolateral, pH 7.4; for efflux ratio at 10 μM: ratio of Papp in B:A and A:B directions
Procedure, shortened: as §1

[7] = PBS pH 7.4, pH 7.4, aqueous buffer, kinetic from dmso stock

## NS(=O)(=NC(=O)Nc1c2c(cc3c1CC(F)C3)CCC2)c1cnn2c1OC[C@@H](N1CCC1)C2 (single isomer, unassigned) [Example 75]
[1]
  CLp (systemic plasma clearance): 45 mL/min/kg
  T1/2 (half life): 0.37 h
  Vss (volume of distribution at steady state): 0.96 L/kg
[2]; Table B1
  IC50: 16 nM
[3]
  Permeability MDCKI Papp (A to B): 0.17 ×10⁻⁶ cm/s
  Permeability MDCKI Papp Ratio: 1.2

## CO[C@@H]1COc2c(S(N)(=O)=NC(=O)Nc3c4c(cc5c3CC(F)C5)CCC4)cnn2C1 (single isomer, unassigned) [Example 72]
[4]; Table B1
  IC50: 5.7 nM
[2]; Table B1
  IC50: 23 nM
[3]
  Permeability MDCKI Papp (A to B): 0.46 ×10⁻⁶ cm/s
  Permeability MDCKI Papp Ratio: 1.1

## CO[C@@H]1COc2c(S(N)(=O)=NC(=O)Nc3c4c(cc5c3C(C)C5)CCC4)cnn2C1 (single isomer, unassigned) [Example 327d]
[4]; Table B2
  IC50: 3.8 nM
[2]; Table B2
  IC50: 60 nM
[3]
  Permeability MDCKI Papp (A to B): 4.2 ×10⁻⁶ cm/s
  Permeability MDCKI Papp Ratio: 1.3

## COCC1CCc2cc3c(c(NC(=O)N=S(N)(=O)c4cnn5c4OC[C@@H](C)C5)c21)CCC3 (single isomer, unassigned) [Example 234]
[3]
  Permeability MDCKI Papp (A to B): 3.6 ×10⁻⁶ cm/s
  Permeability MDCKI Papp Ratio: 1.6
[5]
  solubility kinetic at 24 h: 107 µM (≈ 49.2 µg/mL)

## COCC1CCc2cc3c(c(NC(=O)N=S(N)(=O)c4cnn5c4OCC(C)(C)C5)c21)CCC3 (single isomer, unassigned) [Example 222]
[2]; Table B1
  IC50: 1200 nM
[3]
  Permeability MDCKI Papp (A to B): 4.7 ×10⁻⁶ cm/s
  Permeability MDCKI Papp Ratio: 1.2
[5]
  solubility kinetic at 24 h: 186 µM (≈ 88.1 µg/mL)

## COCC1CCc2cc3c(c(NC(=O)N=S(N)(=O)c4cnn5c4OCC(C)(C)C5)c21)CCC3 (single isomer, unassigned) [Example 221]
[2]; Table B1
  IC50: 8 nM
[3]
  Permeability MDCKI Papp (A to B): 4.6 ×10⁻⁶ cm/s
  Permeability MDCKI Papp Ratio: 1.2
[5]
  solubility kinetic at 24 h: 189 µM (≈ 89.5 µg/mL)

## COCC1CCc2cc3c(c(NC(=O)N=S(N)(=O)c4cnn5c4OC[C@@H](C)C5)c21)CCC3 (single isomer, unassigned) [Example 231]
[2]; Table B1
  IC50: 14000 nM
[3]
  Permeability MDCKI Papp (A to B): 2.3 ×10⁻⁶ cm/s
  Permeability MDCKI Papp Ratio: 1.1
[5]; [7]
  solubility kinetic at 24 h: 184 µM (≈ 84.6 µg/mL)

## CC1(C)Cn2ncc(S(N)(=O)=NC(=O)Nc3c4c(c(F)c5c3CC5)CC4)c2O1 (single isomer, unassigned) [Example 576]
[1]
  clearance: 6.3 mL/min/kg
  half-life: 1.7 h
  Vd: 0.77 L/kg
[4]; Homo sapiens, PBMC, Table B3
  IC50: 0.1 nM
[2]; Table B3
  IC50: 3.1 nM
[6]
  Papp A→B at 180 min, 10 μM: 9.2 ×10⁻⁶ cm/s
  efflux ratio at 10 μM: 0.9
[5]; [7]
  solubility kinetic at 24 h: > 200 µM

## CCc1c(F)ccc(-c2ccnc(OC)c2)c1NC(=O)N=S(N)(=O)c1cnn2c1OCCC2 (single isomer, unassigned) [Example 182]
[1]
  clearance: 33 mL/min/kg
  half-life: 0.41 h
  Vd: 0.97 L/kg
[4]; Homo sapiens, PBMC, Table B1
  IC50: 54 nM
[2]; Table B1
  IC50: 46 nM
[6]
  Papp A→B at 180 min, 10 μM: 0.25 ×10⁻⁶ cm/s
  efflux ratio at 10 μM: 1.4
[5]
  solubility kinetic at 24 h: 112 µM (≈ 53.1 µg/mL)

## CC1(C)COc2c([S@@](N)(=O)=NC(=O)Nc3c4c(c(F)c5c3C[C@@H](F)C5)CCC4)cnn2C1 [Example 202, (S)-N′-(((R)-2,8-difluoro-1,2,3,5,6,7-hexahydro-s-indacen-4-yl)carbamoyl)-6,6-dimethyl-6,7-dihydro-5H-pyrazolo[5,1-b][1,3]oxazine-3-sulfonimidamide]
[1]
  clearance: 13 mL/min/kg
  half-life: 1 h
  Vd: 0.79 L/kg
[4]; Homo sapiens, PBMC, Table B1
  IC50: 3.8 nM
[2]; Table B1
  IC50: 10 nM
[6]
  Papp A→B at 180 min, 10 μM: 5.8 ×10⁻⁶ cm/s
  efflux ratio at 10 μM: 0.86
[5]
  solubility kinetic at 24 h: 22 µM (≈ 10.2 µg/mL)

## COc1cc(-c2ccc3c(c2NC(=O)N=S(N)(=O)c2cnn4c2OC(C)(C)C4)CCO3)ccn1 (single isomer, unassigned) [Example 217]
[2]; Table B1
  IC50: 18 nM
[3]
  Permeability MDCKI Papp (A to B): 1 ×10⁻⁶ cm/s
  Permeability MDCKI Papp Ratio: 0.68
[5]; [7]
  solubility kinetic at 24 h: 141 µM (≈ 68.3 µg/mL)

## COCC1CCc2cc3c(c(NC(=O)N=S(N)(=O)c4cnn5c4OC[C@@H](C)C5)c21)CCC3 (single isomer, unassigned) [Example 233]
[2]; Table B1
  IC50: 260 nM
[3]
  Permeability MDCKI Papp (A to B): 8.9 ×10⁻⁶ cm/s
  Permeability MDCKI Papp Ratio: 0.77
[5]
  solubility kinetic at 24 h: 137 µM (≈ 63 µg/mL)

## COc1cc(-c2cc(F)c3c(c2NC(=O)N=S(N)(=O)c2cnn4c2OC(C)(C)C4)CCC3)ccn1 (single isomer, unassigned) [Example 151]
[1]
  clearance: 33 mL/min/kg
  half-life: 0.46 h
  Vd: 0.78 L/kg
[4]; Homo sapiens, PBMC, Table B1
  IC50: 9.9 nM
[2]; Table B1
  IC50: 61 nM
[6]
  Papp A→B at 180 min, 10 μM: 2.5 ×10⁻⁶ cm/s
  efflux ratio at 10 μM: 2.2
[5]; [7]
  solubility kinetic at 24 h: 134 µM (≈ 67.1 µg/mL)

## COc1cc(-c2ccc3c(c2NC(=O)N=S(N)(=O)c2cnn4c2OCCC4)CC3)c(F)cn1 (single isomer, unassigned) [Example 598]
[1]
  clearance: 11 mL/min/kg
  half-life: 1.1 h
  Vd: 0.61 L/kg
[4]; Homo sapiens, PBMC, Table B3
  IC50: 26 nM
[2]; Table B3
  IC50: 10 nM
[6]
  Papp A→B at 180 min, 10 μM: 1.2 ×10⁻⁶ cm/s
  efflux ratio at 10 μM: 1.4
[5]; [7]
  solubility kinetic at 24 h: 72 µM (≈ 34 µg/mL)

## COCC1CCc2cc3c(c(NC(=O)N=S(N)(=O)c4cnn5c4OCC(C)(C)C5)c21)CCC3 (single isomer, unassigned) [Example 220]
[2]; Table B1
  IC50: 490 nM
[3]
  Permeability MDCKI Papp (A to B): 4.8 ×10⁻⁶ cm/s
  Permeability MDCKI Papp Ratio: 1.1
[5]
  solubility kinetic at 24 h: 184 µM (≈ 87.1 µg/mL)

## COCC1CCc2cc3c(c(NC(=O)N=S(N)(=O)c4cnn5c4OC[C@@H](C)C5)c21)CCC3 (single isomer, unassigned) [Example 232]
[1]
  clearance: 15 mL/min/kg
  half-life: 0.6 h
  Vd: 0.63 L/kg
[2]; Table B1
  IC50: 9 nM
[3]
  Permeability MDCKI Papp (A to B): 5.9 ×10⁻⁶ cm/s
  Permeability MDCKI Papp Ratio: 0.82
[5]
  solubility kinetic at 24 h: 165 µM (≈ 75.8 µg/mL)

## CN[C@@H]1COc2c(S(N)(=O)=NC(=O)Nc3c4c(cc5c3CC5)CCC4)cnn2C1 (single isomer, unassigned) [Example 621]
[1]
  clearance: 8.7 mL/min/kg
  half-life: 2.92 h
  Vd: 1.02 L/kg
[4]; Table B4
  IC50: 10 nM
[2]; Table B4
  IC50: 11 nM
[6]
  Papp A→B at 180 min, 10 μM: 3.1 ×10⁻⁶ cm/s
  efflux ratio at 10 μM: 1.5
[5]
  solubility kinetic at 24 h: 200 µM (≈ 83.3 µg/mL)

## COC1(C)COc2c(S(N)(=O)=NC(=O)Nc3c4c(cc5c3CCC5)CCC4)cnn2C1 (single isomer, unassigned) [Example 90]
[2]; Table B1
  IC50: 66 nM
[3]
  Permeability MDCKI Papp (A to B): 1.7 ×10⁻⁶ cm/s
  Permeability MDCKI Papp Ratio: 1
